These are literature values, as cited in US20110105397A1, “METHOD FOR TREATING HEART FAILURE WITH STRESSCOPIN-LIKE PEPTIDES” (priority 2009, published 2011).

The target in the series is m-CRHR2b (Mus musculus, UniProt Q60748). The following applies: m-CRHR2b transfected CHO-K1 cells (Lewis et al., 2001); cited from earlier work.
Sequence of m-CRHR2b (Q60748 1-431 isoform Q60748-2): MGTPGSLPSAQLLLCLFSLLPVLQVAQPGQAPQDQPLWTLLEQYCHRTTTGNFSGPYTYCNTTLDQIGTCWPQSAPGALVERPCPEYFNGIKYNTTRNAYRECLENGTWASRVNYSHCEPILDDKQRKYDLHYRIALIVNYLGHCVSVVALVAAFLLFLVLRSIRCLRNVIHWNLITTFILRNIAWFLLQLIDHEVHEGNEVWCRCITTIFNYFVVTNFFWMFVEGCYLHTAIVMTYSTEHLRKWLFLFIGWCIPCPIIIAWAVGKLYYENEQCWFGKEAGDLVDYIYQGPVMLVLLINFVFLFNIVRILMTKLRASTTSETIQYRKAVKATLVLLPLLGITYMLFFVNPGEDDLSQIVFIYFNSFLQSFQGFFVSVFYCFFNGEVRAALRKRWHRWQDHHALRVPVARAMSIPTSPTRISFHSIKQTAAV

For the compound `CC[C@H](C)[C@H](NC(=O)[C@H](CO)NC(=O)[C@H](CC(C)C)NC(=O)[C@@H]1CCCN1C(=O)[C@@H]1CCCN1C(=O)[C@H](CC(=O)O)NC(=O)[C@@H](N)CC(=O)O)C(=O)N[C@@H](CC(=O)O)C(=O)N[C@@H](CC(C)C)C(=O)N[C@H](C(=O)N[C@@H](Cc1ccccc1)C(=O)N[C@@H](Cc1c[nH]cn1)C(=O)N[C@@H](CC(C)C)C(=O)N[C@@H](CC(C)C)C(=O)N[C@@H](CCCNC(=N)N)C(=O)N[C@H](C(=O)N[C@@H](CC(C)C)C(=O)N[C@@H](CC(C)C)C(=O)N[C@@H](CCC(=O)O)C(=O)N[C@@H](CC(C)C)C(=O)N[C@@H](C)C(=O)N[C@@H](CCCNC(=N)N)C(=O)N[C@H](C(=O)N[C@@H](CCC(N)=O)C(=O)N[C@@H](CO)C(=O)N[C@@H](CCC(N)=O)C(=O)N[C@@H](CCCNC(=N)N)C(=O)N[C@@H](CCC(=O)O)C(=O)N[C@@H](CCCNC(=N)N)C(=O)N[C@@H](C)C(=O)N[C@@H](CCC(=O)O)C(=O)N[C@@H](CCC(N)=O)C(=O)N[C@@H](CC(N)=O)C(=O)N[C@@H](CCCNC(=N)N)C(=O)N[C@H](C(=O)N[C@H](C(=O)N[C@@H](Cc1ccccc1)C(=O)N[C@@H](CC(=O)O)C(=O)N[C@@H](CO)C(=O)N[C@H](C(N)=O)C(C)C)[C@@H](C)CC)[C@@H](C)CC)[C@@H](C)O)[C@@H](C)O)[C@@H](C)O` [SEQ ID NO: 114, DDPPLSIDLTFHLLRTLLELARTQSQRERAEQNRIIFDSV-NH2], the “Published pA50” value is listed as 10.06^2.
